biological target: human FLAP (Homo sapiens (Human), UniProt P20292); test: FLAP binding assay (HTRF format); details: Table 6 (additional runs), human FLAP wild type
Experimental: The ability of the compounds of the present invention to treat a FLAP-mediated disease and/or disorder, or associated symptoms or complications thereof, was determined using the following procedures. Binding assay data represent the average value obtained from two different assay plates, with samples run in duplicate on each plate. Human whole blood assay data represent a single replicate on an assay plate using whole blood from at least one healthy donor.
Data are expressed as a HTRF ratio.

Chain of human FLAP (P20292 whole entry): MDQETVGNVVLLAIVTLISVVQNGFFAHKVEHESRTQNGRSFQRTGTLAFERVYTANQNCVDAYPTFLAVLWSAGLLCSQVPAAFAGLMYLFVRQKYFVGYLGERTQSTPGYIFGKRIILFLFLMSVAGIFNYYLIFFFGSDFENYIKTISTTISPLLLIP

Row | Ki [nM] | SMILES
1 | 63.2 | CN1CCCC[C@@H](NS(=O)(=O)c2ccccc2-c2ccc(-c3cnc(N)cn3)c(F)c2)C1=O [Example 29, (S)-4′-(5-Aminopyrazin-2-yl)-3′-fluoro-N-[(3S)-1-methyl-2-oxoazepan-3-yl]biphenyl-2-sulfonamide]
2 | 28.8 | Nc1cnc(-c2ccc(-c3ccccc3NS(=O)(=O)C3CC3)cc2F)cn1 [Example 38, N-(4′-(5-aminopyrazin-2-yl)-3′-fluoro-[1,1′-biphenyl]-2-yl)cyclopropanesulfonamide]
3 | 10.6 | Nc1cnc(-c2ccc(-c3ccccc3NS(=O)(=O)C(F)(F)F)cc2F)cn1 [Example 41, N-[4′-(5-Aminopyrazin-2-yl)-3′-fluorobiphenyl-2-yl]-1,1,1-trifluoromethanesulfonamide]
4 | 10.2 | CN(C)S(=O)(=O)c1ccccc1-c1ccc(-c2cnc(N)cn2)c(F)c1 [Example 42, 4′-(5-Aminopyrazin-2-yl)-3′-fluoro-N,N-dimethylbiphenyl-2-sulfonamide]
5 | 6.5 | Nc1cnc(-c2ccc(-c3ccccc3S(=O)(=O)N3CCOCC3)cc2F)cn1 [Example 44, 5-[3-Fluoro-2′-(morpholin-4-ylsulfonyl)biphenyl-4-yl]pyrazin-2-amine]
6 | 1.6 | CCN(CC)S(=O)(=O)c1ccccc1-c1ccc(-c2cnc(N)cn2)c(F)c1 [Example 47, 4′-(5-Aminopyrazin-2-yl)-N,N-diethyl-3′-fluorobiphenyl-2-sulfonamide]
7 | 7 | Nc1cnc(-c2ccc(-c3ccccc3S(=O)(=O)N3CCCC3)cc2F)cn1 [Example 48, 5-[3-Fluoro-2′-(pyrrolidin-1-ylsulfonyl)biphenyl-4-yl]pyrazin-2-amine]
8 | 1.3 | Nc1cnc(-c2ccc(-c3ccccc3S(=O)(=O)N3CCCC(F)(F)C3)cc2F)cn1 [Example 50, 5-{2′-[(3,3-Difluoropiperidin-1-yl)sulfonyl)-3-fluorobiphenyl-4-yl}pyrazin-2-amine]
9 | 3.8 | Nc1cnc(-c2ccc(-c3ccccc3S(=O)(=O)N3CCC(F)(F)C3)cc2F)cn1 [Example 51, 5-{2′-[(3,3-Difluoropyrrolidin-1-yl)sulfonyl]-3-fluorobiphenyl-4-yl}pyrazin-2-amine]
10 | 3.7 | Nc1cnc(-c2ccc(-c3ccccc3S(=O)(=O)N3CC(F)(F)C3)cc2F)cn1 [Example 52, 5-{2′-[(3,3-Difluoroazetidin-1-yl)sulfonyl]-3-fluorobiphenyl-4-yl}pyrazin-2-amine]
11 | 3.3 | Nc1cnc(-c2ccc(-c3ccccc3S(=O)(=O)N3CCCCCC3)cc2F)cn1 [Example 53, 5-[2′-(Azepan-1-ylsulfonyl)-3-fluorobiphenyl-4-yl]pyrazin-2-amine]
12 | 1.1 | Nc1cnc(-c2ccc(-c3ccccc3S(=O)(=O)N3CCC(O)(C(F)(F)F)CC3)cc2F)cn1 [Example 55, 1-{[4′-(5-Aminopyrazin-2-yl)-3′-fluorobiphenyl-2-yl]sulfonyl}-4-(trifluoromethyl)piperidin-4-ol]
13 | 8.8 | CS(=O)(=O)N1CCN(S(=O)(=O)c2ccccc2-c2ccc(-c3cnc(N)cn3)c(F)c2)CC1 [Example 56, 5-(3-Fluoro-2′-{[4-(methylsulfonyl)piperazin-1-yl]sulfonyl}biphenyl-4-yl)pyrazin-2-amine]
14 | 13.4 | CC(=O)N1CCN(S(=O)(=O)c2ccccc2-c2ccc(-c3cnc(N)cn3)c(F)c2)CC1 [Example 57, 5-{2′-[(4-Acetylpiperazin-1-yl)sulfonyl]-3-fluorobiphenyl-4-yl}pyrazin-2-amine]
15 | 4.6 | Nc1cnc(-c2ccc(-c3ccccc3S(=O)(=O)N3CCN(C(=O)C4CC4)CC3)cc2F)cn1 [Example 58, 5-(2′-{[4-(Cyclopropylcarbonyl)piperazin-1-yl]sulfonyl}-3-fluoroblphenyl-4-yl)pyrazin-2-amine]
16 | 63.3 | Nc1cnc(-c2ccc(-c3ccccc3S(=O)(=O)N3CCC(N)CC3)cc2F)cn1 [Example 65, 5-{2′-[(4-Aminopiperidin-1-yl)sulfonyl]-3-fluorobiphenyl-4-yl}pyrazin-2-amine]
17 | 26.6 | Nc1cnc(-c2ccc(-c3ccccc3S(=O)(=O)N3CCNC(=O)C3)cc2F)cn1 [Example 66, 4-{1,4′-(5-Aminopyrazin-2-yl)-3′-fluorobiphenyl-2-ylisulfonyl}piperazin-2-one]
18 | 0.9 | Nc1cnc(-c2ccc(-c3ccccc3S(=O)(=O)N3CCC(CCO)CC3)cc2F)cn1 [Example 69, 2-(1-{[4′-(5-Aminopyrazin-2-yl)-3′-fluorobiphenyl-2-yl]sulfonyl}piperidin-4-yl)ethanol]
19 | 120 | CNC1CCN(S(=O)(=O)c2ccccc2-c2ccc(-c3cnc(N)cn3)c(F)c2)CC1 [Example 72, 5-{3-Fluoro-2′-{[4-(methylamino)piperidin-1-yl]sulfonyl}biphenyl-4-yl)pyrazin.-2-amine]
20 | 10.7 | CC(=O)NC1CCN(S(=O)(=O)c2ccccc2-c2ccc(-c3cnc(N)cn3)c(F)c2)CC1 [Example 75, N-(1-{[4′-(5-Aminopyrazin-2′yl)-3′-fluorobiphenyl-2-yl]sulfonyl}piperidin-4-yl)acetamide]
21 | 0.7 | Nc1cnc(-c2ccc(-c3ccccc3S(=O)(=O)N[C@@H](CO)[C@@H](O)c3ccccc3)cc2F)cn1 [Example 78, 4′-(5-Aminopyrazin-2-yl)-3′-fluoro-N-[(1S,2S)-2-hydroxy-1-(hydroxymethyl)-2-phenylethyl]biphenyl-2-sulfonamide]
22 | 5.3 | CC(C)C[C@@H](CO)NS(=O)(=O)c1ccccc1-c1ccc(-c2cnc(N)cn2)c(F)c1 [Example 79, 4′-(5-Aminopyrazin-2-yl)-3′-fluoro-N-[(1S)-1-(hydroxymethyl)-3-methylbutyl]biphenyl-2-sulfonamide]
23 | 3.9 | Nc1cnc(-c2ccc(-c3ccccc3S(=O)(=O)NCCCO)cc2F)cn1 [Example 80, 4′-(5-Aminopyrazin-2-yl)-3′-fluoro-N-(3-hydroxypropyl)biphenyl-2-sulfonamide]
24 | 6.4 | Nc1cnc(-c2ccc(-c3ccccc3S(=O)(=O)N[C@H](CO)c3ccccc3)cc2F)cn1 [Example 81, 4′-(5-Aminopyrazin-2-yl)-3′-fluoro-N-[(1S)-2-hydroxy-1-phenylethyl]biphenyl-2-sulfonamide]
25 | 0.7 | Nc1cnc(-c2ccc(-c3ccccc3S(=O)(=O)N[C@@H](CO)c3ccccc3)cc2F)cn1 [Example 82, 4′-(5-Aminopyrazin-2-yl)-3′-fluoro-N-[(1R)-2-hydroxy-1-phenylethyl]biphenyl-2-sulfonamide]
26 | 1.9 | Nc1cnc(-c2ccc(-c3ccccc3S(=O)(=O)N[C@@H]3CCCC[C@H]3O)cc2F)cn1 [Example 85, 4′-(5-Aminopyrazin-2-yl)-3′-fluoro-N-[(1R,2R)-2-hydroxycyclohexyl]biphenyl-2-sulfonamide]
27 | 2.6 | CC[C@H](CO)NS(=O)(=O)c1ccccc1-c1ccc(-c2cnc(N)cn2)c(F)c1 [Example 86, 4′-(5-Aminopyrazin-2-yl)-3′-fluoro-N-[(1R)-1-(hydroxymethyl)propyl]biphenyl-2-sulfonamide]
28 | 3.2 | Nc1cnc(-c2ccc(-c3ccccc3S(=O)(=O)N[C@@H]3CCCC[C@@H]3O)cc2F)cn1 [Example 87, 4′-(5-Aminopyrazin-2-yl)-3′-fluoro-N-[(1R,2S)-2-hydroxycyclohexyl]biphenyl-2-sulfonamide]
29 | 6.2 | Nc1cnc(-c2ccc(-c3ccccc3S(=O)(=O)NCCO)cc2F)cn1 [Example 88, 4′-(5-Aminopyrazin-2-yl)-3′-fluoro-N-(2-hydroxyethyl)biphenyl-2-sulfonamide]

Reference: patent US9745328B2, “Flap modulators” (JANSSEN PHARMACEUTICA NV, priority 2013, dated 2017)
